# Data from US10988477B2 (Merck Patent GmbH, priority 2018, dated 2021).
# pKi: −log10 of the molar value.
# Target: GCN2 kinase (Homo sapiens, UniProt Q9P2K8)
# Assay: GCN2 enzyme inhibition assay (Transcreener ADP2 fluorescence polarization)
# Format: biochemical
# Details: Enzyme activity for compounds of Formula IV; Ki(app), 280 μM ATP, 25° C.
# Method: Compounds were screened for their ability to inhibit GCN2 kinase activity using a Transcreener® ADP^2 fluorescence polarization assay that detects ADP levels (BellBrook Labs, WI). Assays were carried out in a buffer consisting of 25 mM Tris-HCl (pH 7.5), 50 mM NaCl, 10 mM MgCl2 and 1 mM DTT. Final substrate concentrations were 280 μM ATP and 200 μM peptidic substrate ([…]-OH [(RS)7], Bachem, Switzerland). Assays were carried out at 25° C. in the presence of a (typical) final concentration of 4 nM GCN2 kinase. An assay buffer containing GCN2 kinase and (RS)7 was prepared. 4.7 μL of this stock solution was placed per well of a black, low volume, 384-well microtitre plate (e.g. catalogue number 3676, Corning Inc., NY). To this was added […] of DMSO containing serial dilutions of the test compound (typical final concentrations of test compound were 0 to 8 μM). The plate was incubated for 10 minutes at 25° C. prior to the addition of 4.7 μL of ATP stock buffer to initiate the enzyme reaction. The reaction was allowed to proceed for 1 hour at 25° C., prior to the addition of 10 μL detection buffer (consisting of appropriate concentrations of ADP^2 antibody and ADP Alexa633 tracer in 1× stop and detect buffer as supplied by BellBrook Labs). […] Percentage inhibition of enzyme activity was then calculated at each compound dose. IC50 and Ki(app) (using known assay and kinetic parameters) values were calculated from percentage inhibition data using a non-linear, tight-binding algorithm. All data analysis was undertaken using the Screener® software package (Genedata, Switzerland).
# GCN2 kinase, sequence (Q9P2K8 whole entry): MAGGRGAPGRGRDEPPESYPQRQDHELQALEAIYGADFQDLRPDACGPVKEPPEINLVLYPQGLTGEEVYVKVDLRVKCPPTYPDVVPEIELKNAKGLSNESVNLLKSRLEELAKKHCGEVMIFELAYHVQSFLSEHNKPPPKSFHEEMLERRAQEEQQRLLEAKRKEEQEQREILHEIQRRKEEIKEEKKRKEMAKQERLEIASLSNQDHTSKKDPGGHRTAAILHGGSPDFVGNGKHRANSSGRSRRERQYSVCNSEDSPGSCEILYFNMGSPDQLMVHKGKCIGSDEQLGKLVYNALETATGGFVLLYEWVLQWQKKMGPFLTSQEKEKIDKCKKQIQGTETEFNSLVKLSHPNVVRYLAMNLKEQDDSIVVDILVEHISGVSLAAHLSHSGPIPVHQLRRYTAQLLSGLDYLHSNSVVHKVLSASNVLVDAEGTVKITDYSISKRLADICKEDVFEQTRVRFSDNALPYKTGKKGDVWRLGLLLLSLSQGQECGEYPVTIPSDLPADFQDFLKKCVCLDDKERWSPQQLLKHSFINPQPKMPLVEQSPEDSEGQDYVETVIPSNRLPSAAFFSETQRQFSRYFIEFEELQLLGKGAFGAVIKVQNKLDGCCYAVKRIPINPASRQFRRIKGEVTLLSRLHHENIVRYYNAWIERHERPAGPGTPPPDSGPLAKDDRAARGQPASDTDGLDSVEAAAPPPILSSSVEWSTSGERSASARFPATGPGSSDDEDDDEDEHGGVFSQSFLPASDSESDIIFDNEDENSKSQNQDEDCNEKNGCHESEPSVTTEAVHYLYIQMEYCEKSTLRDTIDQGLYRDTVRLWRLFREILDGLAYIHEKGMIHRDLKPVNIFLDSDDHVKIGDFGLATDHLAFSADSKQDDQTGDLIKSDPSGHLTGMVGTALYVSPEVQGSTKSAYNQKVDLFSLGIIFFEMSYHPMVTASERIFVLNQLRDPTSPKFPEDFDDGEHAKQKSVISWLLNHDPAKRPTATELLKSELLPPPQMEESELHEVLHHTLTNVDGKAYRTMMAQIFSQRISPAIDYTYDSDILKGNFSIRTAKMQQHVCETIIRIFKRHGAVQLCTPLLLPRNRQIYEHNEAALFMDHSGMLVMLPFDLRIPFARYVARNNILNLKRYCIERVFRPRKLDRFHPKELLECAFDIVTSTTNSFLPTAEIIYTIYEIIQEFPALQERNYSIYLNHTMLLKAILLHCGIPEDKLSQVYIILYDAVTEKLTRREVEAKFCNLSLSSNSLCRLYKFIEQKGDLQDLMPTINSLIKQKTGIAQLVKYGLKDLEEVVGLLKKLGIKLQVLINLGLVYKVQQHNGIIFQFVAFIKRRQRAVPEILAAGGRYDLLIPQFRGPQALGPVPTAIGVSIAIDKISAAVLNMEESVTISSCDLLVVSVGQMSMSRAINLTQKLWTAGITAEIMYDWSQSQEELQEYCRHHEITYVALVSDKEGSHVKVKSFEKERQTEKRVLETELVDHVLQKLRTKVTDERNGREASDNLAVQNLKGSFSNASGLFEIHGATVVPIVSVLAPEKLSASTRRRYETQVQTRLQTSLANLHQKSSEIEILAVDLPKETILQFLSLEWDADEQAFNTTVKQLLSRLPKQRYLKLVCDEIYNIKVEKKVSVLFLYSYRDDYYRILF
row,Compound,pKi
1,"NC(=O)c1cn2c(-c3nccc(N4CC(=O)N5CCCC5C4)n3)cnc2cn1 (stereo not drawn) [IV-268, 3-(4-(4-Oxohexahydropyrrolo[1,2-a]pyrazin-2(1H)-yl)pyrimidin-2-yl)imidazo[1,2-a]pyrazine-6-carboxamide]",6.00 to 7.00
2,NCC1CCN(c2ccnc(-c3cnc4cnc(C(F)(F)F)cn34)n2)CC1 [IV-487],6.00 to 7.00
3,"FC(F)(F)c1cn2c(-c3nccc(N4CCC(c5c[nH]cn5)C4)n3)cnc2cn1 (stereo not drawn) [IV-456, 3-(4-(3-(1H-Imidazol-4-yl)pyrrolidin-1-yl)pyrimidin-2-yl)-6-(trifluoromethyl)imidazo[1,2-a]pyrazine]",6.00 to 7.00
4,"O=C1NC(=O)C2(CCN(c3ccnc(-c4cnc5cnc(C(F)(F)F)cn45)n3)C2)N1 (stereo not drawn) [IV-560, 7-(2-(6-(Trifluoromethyl)imidazo[1,2-a]pyrazin-3-yl)pyrimidin-4-yl)-1,3,7-triazaspiro[4.4]nonane-2,4-dione]",6.00 to 7.00
5,"CC(=O)N1CCN(c2ccnc(-c3cnc4cnc(-c5ccccc5C#N)cn34)n2)CC1 [IV-301, 2-(3-(4-(4-Acetylpiperazin-1-yl)pyrimidin-2-yl)imidazo[1,2-a]pyrazin-6-yl)benzonitrile]",6.00 to 7.00
6,"FC(F)(F)c1cn2c(-c3nccc(N4CCC(COc5ccccc5)C4)n3)cnc2cn1 (stereo not drawn) [IV-559, 3-(4-(3-(Phenoxymethyl)pyrrolidin-1-yl)pyrimidin-2-yl)-6-(trifluoromethyl)imidazo[1,2-a]pyrazine]",6.00 to 7.00
7,"FC(F)(F)c1cn2c(-c3nccc(N4CCC(C5CCOCC5)C4)n3)cnc2cn1 (stereo not drawn) [IV-507, 3-(4-(3-(Tetrahydro-2H-pyran-4-yl)pyrrolidin-1-yl)pyrimidin-2-yl)-6-(trifluoromethyl)imidazo[1,2-a]pyrazine]",6.00 to 7.00
8,O=C(N[C@H]1CCCN(c2ccnc(-c3cnc4cnc(C(F)(F)F)cn34)n2)C1)C1CC1 [IV-732],< 6.00
9,"CC1CC(C(N)=O)CN(c2ccnc(-c3cnc4cnc(C(F)F)cn34)n2)C1 (mixture of isomers) [IV-107, 1-(2-(6-(Difluoromethyl)imidazo[1,2-a]pyrazin-3-yl)pyrimidin-4-yl)-5-methylpiperidine-3-carboxamide]",7.00 to 8.00
10,"FC(F)(F)c1cn2c(-c3nccc(N4CCC5(CC4)COC5)n3)cnc2cn1 [IV-511, 7-(2-(6-(Trifluoromethyl)imidazo[1,2-a]pyrazin-3-yl)pyrimidin-4-yl)-2-oxa-7-azaspiro[3.5]nonane]",6.00 to 7.00
11,"CC1C(c2cn[nH]c2)CC(P(C)(C)=O)CN1c1ccnc(-c2cnc3cnc(C(F)(F)F)cn23)n1 (stereo not drawn) [IV-697, Dimethyl(6-methyl-5-(1H-pyrazol-4-yl)-1-(2-(6-(trifluoromethyl)imidazo[1,2-a]pyrazin-3-yl)pyrimidin-4-yl)piperidin-3-yl)phosphine oxide]",6.00 to 7.00
12,"FC(F)(F)c1cn2c(-c3nccc(N4CCCC(n5cccn5)C4)n3)cnc2cn1 (stereo not drawn) [IV-665, 3-(4-(3-(1H-Pyrazol-1-yl)piperidin-1-yl)pyrimidin-2-yl)-6-(trifluoromethyl)imidazo[1,2-a]pyrazine]",6.00 to 7.00
13,FC(F)(F)c1cn2c(-c3nccc(N4CCO[C@@H](c5ccccn5)C4)n3)cnc2cn1 [IV-722],6.00 to 7.00

# Results, then the compound that gave them:
row,pKi,Compound
1,6.00 to 7.00,"CC(=O)N1CCN(c2nc(C)cc(-c3cnc4cnc(C(N)=O)cn34)n2)CC1 [IV-188, 3-(2-(4-Acetylpiperazin-1-yl)-6-methylpyrimidin-4-yl)imidazo[1,2-a]pyrazine-6-carboxamide]"
2,6.00 to 7.00,"O=C1CN(C2CCN(c3ccnc(-c4cnc5cnc(C(F)(F)F)cn45)n3)C2)CCN1 (stereo not drawn) [IV-602, 4-(1-(2-(6-(Trifluoromethyl)imidazo[1,2-a]pyrazin-3-yl)pyrimidin-4-yl)pyrrolidin-3-yl)piperazin-2-one]"
3,7.00 to 8.00,"CC1CC(c2cn[nH]c2)C(C)N(c2ccnc(-c3cnc4cnc(C(F)(F)F)cn34)n2)C1 (single isomer, unassigned) [IV-310]"
4,7.00 to 8.00,"FC(F)c1cn2c(-c3cccc(-c4cccc5[nH]ccc45)n3)cnc2cn1 [IV-233, 3-(6-(1H-Indol-4-yl)pyridin-2-yl)-6-(difluoromethyl)imidazo[1,2-a]pyrazine]"
5,6.00 to 7.00,"O=S1(=O)CCN(c2ccnc(-c3cnc4cnc(C(F)F)cn34)n2)CC1 [IV-84, 4-(2-(6-(Difluoromethyl)imidazo[1,2-a]pyrazin-3-yl)pyrimidin-4-yl)thiomorpholine 1,1-dioxide]"
6,6.00 to 7.00,"CC(=O)N1CCN(c2ccnc(-c3cnc4cnc(-c5cccnc5)cn34)n2)CC1 [IV-289, 1-(4-(2-(6-(Pyridin-3-yl)imidazo[1,2-a]pyrazin-3-yl)pyrimidin-4-yl)piperazin-1-yl)ethan-1-one]"
7,6.00 to 7.00,"Cc1nc(C2CN(c3ccnc(-c4cnc5cnc(C(F)(F)F)cn45)n3)CCO2)n[nH]1 (stereo not drawn) [IV-661, 2-(5-Methyl-1H-1,2,4-triazol-3-yl)-4-(2-(6-(trifluoromethyl)imidazo[1,2-a]pyrazin-3-yl)pyrimidin-4-yl)morpholine]"
8,7.00 to 8.00,"CC(=O)N1CCN(c2ccnc(-c3cnc4cnc(-c5cccc(O)c5)cn34)n2)CC1 [IV-309, 1-(4-(2-(6-(3-Hydroxyphenyl)imidazo[1,2-a]pyrazin-3-yl)pyrimidin-4-yl)piperazin-1-yl)ethan-1-one]"

# Same assay, conditions: compounds of Formula II; 280 μM ATP, 4 nM GCN2 kinase
row,Compound,pKi
1,"CC1CCN(c2cc(-c3cnc4ccc(C(F)F)nn34)ncn2)CC1N=S(C)(C)=O (stereo not drawn) [II-629, ((1-(6-(6-(Difluoromethyl)imidazo[1,2-b]pyridazin-3-yl)pyrimidin-4-yl)-4-methylpiperidin-3-yl)imino)dimethyl-λ^6-sulfanone]",6.00 to 8.00
2,"N#CC1CN(c2cc(-c3cnc4ccc(C(F)F)nn34)ncn2)CCO1 (stereo not drawn) [II-531, 4-(6-(6-(Difluoromethyl)imidazo[1,2-b]pyridazin-3-yl)pyrimidin-4-yl)morpholine-2-carbonitrile]",6.00 to 8.00
3,"CS(C)(=O)=NCc1cccc(-c2cc(-c3cnc4ccc(C(F)F)nn34)ncn2)c1 [II-595, ((3-(6-(6-(Difluoromethyl)imidazo[1,2-b]pyridazin-3-yl)pyrimidin-4-yl)benzyl)imino)dimethyl-λ^6-sulfanone]",6.00 to 8.00
4,"COCCN1CCN(c2cc(-c3cnc4ccc(C(F)F)nn34)ncn2)C(C)C1CNS(C)(=O)=O (stereo not drawn) [II-494, N-((4-(6-(6-(Difluoromethyl)imidazo[1,2-b]pyridazin-3-yl)pyrimidin-4-yl)-1-(2-methoxyethyl)-3-methylpiperazin-2-yl)methyl)methanesulfonamide]",> 8.00
5,"CS(=O)(=O)NCC1CN(c2cc(-c3cnc4ccc(C(F)F)nn34)ncn2)CCC12CC2 (stereo not drawn) [II-566, N-((6-(6-(6-(Difluoromethyl)imidazo[1,2-b]pyridazin-3-yl)pyrimidin-4-yl)-6-azaspiro[2.5]octan-4-yl)methyl)methanesulfonamide]",> 8.00

# Results, then the compound that gave them:
row,pKi,Compound
1,6.00 to 8.00,"CC1CC(N=S(C)(C)=O)CN(c2cc(-c3cnc4ccc(C#N)nn34)ncn2)C1 (stereo not drawn) [II-702, 3-(6-(3-((Dimethyl(oxo)-λ^6-sulfanylidene)amino)-5-methylpiperidin-1-yl)pyrimidin-4-yl)imidazo[1,2-b]pyridazine-6-carbonitrile]"
2,6.00 to 8.00,"[2H]C([2H])([2H])N1CCN(c2cc(-c3cnc4ccc(C(F)F)nn34)ncn2)C(C)C1CNS(C)(=O)=O (stereo not drawn) [II-561, N-((4-(6-(6-(Difluoromethyl)imidazo[1,2-b]pyridazin-3-yl)pyrimidin-4-yl)-3-methyl-1-(methyl-d3)piperazin-2-yl)methyl)methanesulfonamide]"
3,6.00 to 8.00,"CS(=O)(=O)NC1CN(c2cc(-c3cnc4ccc(C(F)F)nn34)ncn2)CCC1(F)F (stereo not drawn) [II-597, N-(1-(6-(6-(Difluoromethyl)imidazo[1,2-b]pyridazin-3-yl)pyrimidin-4-yl)-4,4-difluoropiperidin-3-yl)methanesulfonamide]"
4,6.00 to 8.00,"CC1CCC(NS(C)(=O)=O)CN1c1cc(-c2cnc3ccc(C(F)F)nn23)ncn1 (stereo not drawn) [II-552, N-(1-(6-(6-(Difluoromethyl)imidazo[1,2-b]pyridazin-3-yl)pyrimidin-4-yl)-6-methylpiperidin-3-yl)methanesulfonamide]"
5,6.00 to 8.00,"Cc1cc(C(=O)N=S(C)(C)=O)cc(-c2cc(-c3cnc4ccc(C(F)F)nn34)ncn2)c1 [II-611, 3-(6-(6-(difluoromethyl)imidazo[1,2-b]pyridazin-3-yl)pyrimidin-4-yl)-N-(dimethyl(oxo)-λ^6-sulfanylidene)-5-methylbenzamide]"
6,> 8.00,"[2H]C([2H])(NS(C)(=O)=O)C1CCCN(c2cc(-c3cnc4ccc(C(F)F)nn34)ncn2)C1 (stereo not drawn) [II-524, N-((1-(6-(6-(Difluoromethyl)imidazo[1,2-b]pyridazin-3-yl)pyrimidin-4-yl)piperidin-3-yl)methyl-d2)methanesulfonamide]"

# Same assay, conditions: compounds of Formula III; 280 μM ATP, 4 nM GCN2 kinase
row,pKi,Compound
1,6.00 to 8.00,"CC1CC(N=S(C)(C)=O)CN(c2cc(-c3cnn4ccc(C(F)F)nc34)ncn2)C1 (stereo not drawn) [III-14, [1-[6-[5-(Difluoromethyl)pyrazolo[1,5-a]pyrimidin-3-yl]pyrimidin-4-yl]-5-methyl-3-piperidyl]imino-dimethyl-oxo-6-sulfane]"
